Non-standard residues stand in square brackets, D forms with d. Residues, ends and D or L forms follow the SMILES beside them. 3Abz = Nc1cccc(C(=O)O)c1; 4Abz = Nc1ccc(C(=O)O)cc1; 2Abz = Nc1ccccc1C(=O)O; Ava = NCCCCC(=O)O
Assays:
GPR7 = target: T1, GPR7 (Homo sapiens, UniProt P48145); assay: Binding inhibition test with [125I]-[Phe2]-hNPW(1-23), GPR7 membrane preparation
T1 construct: expressed in transfected cells; host or cells: HEK293/CRE-BLA cells (AURORA), expression vector pIRES-hygro (Clontech)
T1 sequence (P48145 1-328): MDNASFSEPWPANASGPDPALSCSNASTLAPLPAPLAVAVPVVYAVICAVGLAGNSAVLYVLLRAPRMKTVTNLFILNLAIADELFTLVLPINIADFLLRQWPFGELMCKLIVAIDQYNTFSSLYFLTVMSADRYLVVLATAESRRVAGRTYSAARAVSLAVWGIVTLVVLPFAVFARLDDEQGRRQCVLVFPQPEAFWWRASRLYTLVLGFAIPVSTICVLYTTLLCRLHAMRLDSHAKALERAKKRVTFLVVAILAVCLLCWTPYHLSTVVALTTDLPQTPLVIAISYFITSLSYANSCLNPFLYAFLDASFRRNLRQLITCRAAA
Experimental: (§1) One nmol of [Phe2]-hNPW(1-23) (prepared in Synthesis Example 19) was dissolved in 5 µL of anhydrous DMSO, and the solution was mixed with 0.1M nickel chloride. Then, the mixture was mixed with 10 µL of a 0.00 1 % aqueous solution of hydrogen peroxide, 10 µL of an enzyme solution (lactoperoxidase (Sigma) adjusted to 10 µg/mL with a 0.1M HEPES buffer solution), and 37 Mbq/10 µL of Iodine-125 (Amersham), whereafter the resulting mixture was reacted for 60 minutes at room temperature. The reaction was terminated with the addition of 10 µL of 1% sodium azide, and then a radiolabeled peptide fraction was collected by a PD-10 gel filtration column (Amersham) to obtain [^125I]-[Phe2]-hNPW(1-23).
(§2) A cDNA sequence coding for human GPR7 or GPR8 [see Genomics, vol. 28, p. 84 (1995)] was amplified by the PCR method, and cloned using the expression vector pIRES-hygro (Clontech). The resulting expression vector was transfected into HEK293/CRE-BLA cells (AURORA) using the cationic lipid method [see Proceedings of the National Academy of Sciences of the United States of America, vol. 84, p. 7413 (1987)] to obtain GPR7 or GPR8 expression cells.
(§3) A membrane preparation prepared from the cells expressing GPR7 or GPR8 was incubated for 1 hour at room temperature in an assay buffer solution (25 mM Tris buffer solution, 150 mM NaCl, pH 7.4) together with a test compound and 28,000 cpm of [^125I]-[Phe2]-hNPW(1-23). Then, the system was filtered through the glass filter GF/C. After washing with 25 mM Tris buffer solution (pH 7.4), radioactivity on the glass filter was measured. Nonspecific binding was measured in the presence of 1 µM hNPW (prepared in Synthesis Example 1), and the 50% inhibition concentration (IC50 value) of the test compound against [Phe2]-hNPW(1-23) specific binding was calculated [see Molecular Pharmacology, vol. 55, 1101 (1999)].

GPR8 = target: T2, GPR8 (Homo sapiens, UniProt P48146); assay: Binding inhibition test with [125I]-[Phe2]-hNPW(1-23), GPR8 membrane preparation
T2 construct: expressed in transfected cells; host or cells: HEK293/CRE-BLA cells (AURORA), expression vector pIRES-hygro (Clontech)
T2 sequence (P48146 whole entry): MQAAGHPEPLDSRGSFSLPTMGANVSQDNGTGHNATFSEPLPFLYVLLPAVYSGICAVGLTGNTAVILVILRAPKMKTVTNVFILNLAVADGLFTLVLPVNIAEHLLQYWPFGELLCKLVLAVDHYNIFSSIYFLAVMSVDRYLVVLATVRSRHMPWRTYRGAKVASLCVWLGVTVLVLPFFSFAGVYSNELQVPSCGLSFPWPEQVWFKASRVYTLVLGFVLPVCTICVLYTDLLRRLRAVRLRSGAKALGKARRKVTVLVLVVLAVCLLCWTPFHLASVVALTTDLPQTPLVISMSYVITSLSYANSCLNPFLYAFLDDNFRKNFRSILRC
Experimental: as §1, §2, §3

[1] = Table 2, membrane preparation of cells expressing GPR7
[2] = Table 2, membrane preparation of cells expressing GPR8

| SMILES | IC50 (GPR7; [1]) [nM] | IC50 (GPR8; [2]) [nM] | IC50 (GPR7; Table 1, membrane preparation of HEK293/CRE-BLA cells expressing GPR7, 1 hour at room temperature) [nM] | IC50 (GPR8; Table 1, membrane preparation of HEK293/CRE-BLA cells expressing GPR8, 1 hour at room temperature) [nM] |
| --- | --- | --- | --- | --- |
| CC(C)C[C@H](NC(=O)CNC(=O)[C@H](CO)NC(=O)[C@H](CC(C)C)NC(=O)[C@H](CC(C)C)NC(=O)CNC(=O)[C@H](C)NC(=O)[C@H](C)NC(=O)[C@H](CCCNC(=N)N)NC(=O)CNC(=O)c1cccc(NC(=O)CCCCNC(=O)CCCCNC(=O)[C@H](CCCCN)NC(=O)[C@H](Cc2ccc(O)cc2)NC(=O)[C@@H](N)Cc2c[nH]c3ccccc23)c1)C(N)=O [compound 11] (H-WYK[Ava][Ava][3Abz]GRAAGLLSGL-NH2) | 0.37 | 13 |  |  |
| CC(C)C[C@H](NC(=O)CNC(=O)[C@H](CO)NC(=O)[C@H](CC(C)C)NC(=O)[C@H](CC(C)C)NC(=O)CNC(=O)[C@H](C)NC(=O)[C@H](C)NC(=O)[C@H](CCCNC(=N)N)NC(=O)CNC(=O)c1ccc(NC(=O)CCCCNC(=O)CCCCNC(=O)[C@H](CCCCN)NC(=O)[C@H](Cc2ccc(O)cc2)NC(=O)[C@@H](N)Cc2c[nH]c3ccccc23)cc1)C(N)=O [compound 12] (H-WYK[Ava][Ava][4Abz]GRAAGLLSGL-NH2) | 0.35 | 5.1 |  |  |
| CC(C)C[C@H](NC(=O)CNC(=O)[C@H](CO)NC(=O)[C@H](CC(C)C)NC(=O)[C@H](CC(C)C)NC(=O)CNC(=O)[C@H](C)NC(=O)[C@H](C)NC(=O)[C@H](CCCNC(=N)N)NC(=O)CNC(=O)CCCCNC(=O)CCCCNC(=O)c1ccccc1NC(=O)[C@H](CCCCN)NC(=O)[C@H](Cc1ccc(O)cc1)NC(=O)[C@@H](N)Cc1c[nH]c2ccccc12)C(N)=O [compound 16] (H-WYK[2Abz][Ava][Ava]GRAAGLLSGL-NH2) | 1.3 | 160 |  |  |
| CC(C)C[C@H](NC(=O)CNC(=O)[C@H](CO)NC(=O)[C@H](CC(C)C)NC(=O)[C@H](CC(C)C)NC(=O)CNC(=O)[C@H](C)NC(=O)[C@H](C)NC(=O)[C@H](CCCNC(=N)N)NC(=O)CNC(=O)CCCCNC(=O)CCCCNC(=O)CCCCNC(=O)CCCCNC(=O)CCCCNC(=O)[C@H](CCCCN)NC(=O)[C@H](Cc1ccc(O)cc1)NC(=O)[C@@H](N)Cc1c[nH]c2ccccc12)C(N)=O [compound 9] (H-WYK[Ava][Ava][Ava][Ava][Ava]GRAAGLLSGL-NH2) |  |  | > 100 | 2600 |
| CC(C)C[C@H](NC(=O)CNC(=O)[C@H](CO)NC(=O)[C@H](CC(C)C)NC(=O)[C@H](CC(C)C)NC(=O)CNC(=O)[C@H](C)NC(=O)[C@H](C)NC(=O)[C@H](CCCNC(=N)N)NC(=O)CNC(=O)CCCCNC(=O)c1ccccc1NC(=O)CCCCNC(=O)[C@H](CCCCN)NC(=O)[C@H](Cc1ccc(O)cc1)NC(=O)[C@@H](N)Cc1c[nH]c2ccccc12)C(N)=O [compound 13] (H-WYK[Ava][2Abz][Ava]GRAAGLLSGL-NH2) | 0.56 | 39 |  |  |
| CC(C)C[C@H](NC(=O)CNC(=O)[C@H](CO)NC(=O)[C@H](CC(C)C)NC(=O)[C@H](CC(C)C)NC(=O)CNC(=O)[C@H](C)NC(=O)[C@H](C)NC(=O)[C@H](CCCNC(=N)N)NC(=O)CNC(=O)CCCCNC(=O)CCCCNC(=O)c1ccc(NC(=O)[C@H](CCCCN)NC(=O)[C@H](Cc2ccc(O)cc2)NC(=O)[C@@H](N)Cc2c[nH]c3ccccc23)cc1)C(N)=O [compound 18] (H-WYK[4Abz][Ava][Ava]GRAAGLLSGL-NH2) | 5.6 | 190 |  |  |
| CC(C)C[C@H](NC(=O)CNC(=O)[C@H](CO)NC(=O)[C@H](CC(C)C)NC(=O)[C@H](CC(C)C)NC(=O)CNC(=O)[C@H](C)NC(=O)[C@H](C)NC(=O)[C@H](CCCNC(=N)N)NC(=O)CNC(=O)CCCCNC(=O)c1cccc(NC(=O)CCCCNC(=O)[C@H](CCCCN)NC(=O)[C@H](Cc2ccc(O)cc2)NC(=O)[C@@H](N)Cc2c[nH]c3ccccc23)c1)C(N)=O [compound 14] (H-WYK[Ava][3Abz][Ava]GRAAGLLSGL-NH2) | 0.19 | 16 |  |  |
| CC(C)C[C@H](NC(=O)CNC(=O)[C@H](CO)NC(=O)[C@H](CC(C)C)NC(=O)[C@H](CC(C)C)NC(=O)CNC(=O)[C@H](C)NC(=O)[C@H](C)NC(=O)[C@H](CCCNC(=N)N)NC(=O)CNC(=O)CCCCNC(=O)c1ccc(NC(=O)CCCCNC(=O)[C@H](CCCCN)NC(=O)[C@H](Cc2ccc(O)cc2)NC(=O)[C@@H](N)Cc2c[nH]c3ccccc23)cc1)C(N)=O [compound 15] (H-WYK[Ava][4Abz][Ava]GRAAGLLSGL-NH2) | 0.4 | 34 |  |  |
| CC(C)C[C@H](NC(=O)CNC(=O)[C@H](CO)NC(=O)[C@H](CC(C)C)NC(=O)[C@H](CC(C)C)NC(=O)CNC(=O)[C@H](C)NC(=O)[C@H](C)NC(=O)[C@H](CCCNC(=N)N)NC(=O)CNC(=O)CCCCNC(=O)CCCCNC(=O)c1cccc(NC(=O)[C@H](CCCCN)NC(=O)[C@H](Cc2ccc(O)cc2)NC(=O)[C@@H](N)Cc2c[nH]c3ccccc23)c1)C(N)=O [compound 17] (H-WYK[3Abz][Ava][Ava]GRAAGLLSGL-NH2) | 0.34 | 33 |  |  |
| CC(C)C[C@H](NC(=O)CNC(=O)[C@H](CO)NC(=O)[C@H](CC(C)C)NC(=O)[C@H](CC(C)C)NC(=O)CNC(=O)[C@H](C)NC(=O)[C@H](C)NC(=O)[C@H](CCCNC(=N)N)NC(=O)CNC(=O)c1ccccc1NC(=O)CCCCNC(=O)CCCCNC(=O)[C@H](CCCCN)NC(=O)[C@H](Cc1ccc(O)cc1)NC(=O)[C@@H](N)Cc1c[nH]c2ccccc12)C(N)=O [compound 10] (H-WYK[Ava][Ava][2Abz]GRAAGLLSGL-NH2) | 4.7 | 8000 |  |  |
